Here are results for 30 molecules from publication PMC9032825, “Docking, Binding Free Energy Calculations and In Vitro Characterization of Pyrazine Linked 2-Aminobenzamides as Novel Class I Histone Deacetylase (HDAC) Inhibitors” (Molecules, 2022).

Read-outs that look alike come from different tables or passages of the source.

For test [1], the target named is T1, human HDAC2 (Homo sapiens, UniProt Q92769). In words: HDAC2 inhibition, fluorogenic peptide substrate Ac-RHKK(Acetyl)-AMC. Type of test: biochemical. The following applies: test set. How it is done:
(§1) HDAC1, 2, 3 inhibitory activity for the novel inhibitors was performed as previously reported. To keep the test number small, we applied a two-step screening.
(§2) A fluorogenic peptide derived from p53 (Ac-RHKK(Acetyl)-AMC) was used as substrate. The measurements were performed in an assay buffer (50 mM Hepes, 150 mM NaCl, 5 mM MgCl2, 1 mM TCEP and 0.2 mg/mL BSA, pH 7.4 adjusted with NaOH) at 37 °C. Inhibitors at different concentrations were incubated with 10 nM HDAC1, 3 nM HDAC2 or 3 nM HDAC3 (final concentration) for at least 5 min. The reaction was started with the addition of the fluorogenic substrate (20 µM final concentration) and incubated for 30 min for HDAC2 and HDAC3 and 90 min for HDAC1. The reaction was stopped with a solution of 1 mg/mL trypsin in 1 mM HCl and incubated for 1 h at 37 °C. The fluorescence intensity was recorded with an Envision 2104 Multilabel Plate Reader (PerkinElmer, Waltham, MA) with an excitation wavelength of 380 ± 8 nm and an emission wavelength of 430 ± 8 nm. The received fluorescence intensities were normalized with uninhibited reaction as 100% and the reaction without enzyme as 0%. A nonlinear regression analysis was done to determine the IC50 value.

For test [2], the target named is T2, human HDAC1 (Homo sapiens, UniProt Q13547). In words: HDAC1 inhibition, fluorogenic peptide substrate Ac-RHKK(Acetyl)-AMC. The test is classed as biochemical. The following applies: test set. As for the experimental part:
as §1, §2

For test [3], the target named is T3, human HDAC3 (Homo sapiens, UniProt O15379). The test is described as follows: HDAC3 inhibition, fluorogenic peptide substrate Ac-RHKK(Acetyl)-AMC. The following applies: test set. Type of test: biochemical. As for the experimental part: as §1, §2
Test [4] addresses T2, human HDAC1. The following applies: training set, from in vitro IC50; cited from earlier work.
The target of test [5] is T3, human HDAC3. The settings on record: training set, from in vitro IC50; cited from earlier work.
The target in test [6] is T1, human HDAC2. The settings on record: training set, from in vitro IC50; cited from earlier work.

T2 sequence (Q13547 whole entry): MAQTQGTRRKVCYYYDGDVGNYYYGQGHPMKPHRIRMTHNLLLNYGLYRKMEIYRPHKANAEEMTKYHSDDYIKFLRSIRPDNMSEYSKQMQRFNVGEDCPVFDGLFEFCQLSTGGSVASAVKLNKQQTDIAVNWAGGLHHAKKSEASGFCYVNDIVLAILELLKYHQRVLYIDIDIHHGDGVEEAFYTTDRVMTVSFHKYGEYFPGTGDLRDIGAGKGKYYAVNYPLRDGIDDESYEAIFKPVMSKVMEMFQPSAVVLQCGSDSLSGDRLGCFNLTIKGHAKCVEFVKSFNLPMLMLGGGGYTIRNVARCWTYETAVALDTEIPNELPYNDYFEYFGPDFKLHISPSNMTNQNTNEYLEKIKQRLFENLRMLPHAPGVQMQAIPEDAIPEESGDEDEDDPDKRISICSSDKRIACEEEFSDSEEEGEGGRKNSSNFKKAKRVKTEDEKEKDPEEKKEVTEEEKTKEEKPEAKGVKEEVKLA
T3 sequence (O15379 whole entry): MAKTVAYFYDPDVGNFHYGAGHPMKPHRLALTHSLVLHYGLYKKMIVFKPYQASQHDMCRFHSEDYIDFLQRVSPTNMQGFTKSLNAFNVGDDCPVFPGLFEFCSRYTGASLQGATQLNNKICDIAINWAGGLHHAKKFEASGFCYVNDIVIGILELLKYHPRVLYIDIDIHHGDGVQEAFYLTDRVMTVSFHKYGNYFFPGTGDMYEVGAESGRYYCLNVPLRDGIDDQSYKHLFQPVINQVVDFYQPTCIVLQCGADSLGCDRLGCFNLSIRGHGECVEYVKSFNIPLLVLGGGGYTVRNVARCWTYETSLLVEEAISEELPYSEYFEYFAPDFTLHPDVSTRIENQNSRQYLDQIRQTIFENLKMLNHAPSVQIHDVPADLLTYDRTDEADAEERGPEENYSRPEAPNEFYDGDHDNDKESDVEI
T3 sequence (O75376 395-489 partner limits assumed): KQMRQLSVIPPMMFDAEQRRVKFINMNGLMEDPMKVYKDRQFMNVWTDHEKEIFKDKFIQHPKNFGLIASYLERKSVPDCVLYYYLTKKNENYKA
T1 sequence (Q92769 whole entry): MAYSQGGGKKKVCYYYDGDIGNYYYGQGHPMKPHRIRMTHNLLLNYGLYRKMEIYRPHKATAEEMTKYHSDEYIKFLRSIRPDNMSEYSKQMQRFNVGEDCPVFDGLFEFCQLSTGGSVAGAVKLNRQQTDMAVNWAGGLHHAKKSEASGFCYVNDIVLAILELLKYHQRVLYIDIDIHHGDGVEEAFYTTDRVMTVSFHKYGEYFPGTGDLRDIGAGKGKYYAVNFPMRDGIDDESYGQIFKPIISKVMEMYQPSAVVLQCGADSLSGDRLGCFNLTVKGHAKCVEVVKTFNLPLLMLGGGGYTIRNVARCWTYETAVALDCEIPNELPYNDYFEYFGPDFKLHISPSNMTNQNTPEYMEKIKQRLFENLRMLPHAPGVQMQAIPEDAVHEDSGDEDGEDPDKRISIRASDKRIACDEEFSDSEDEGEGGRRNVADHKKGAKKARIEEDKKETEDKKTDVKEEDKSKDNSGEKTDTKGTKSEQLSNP

`Nc1cc(F)ccc1NC(=O)c1ccc(C(=O)NCc2ccccc2)cc1` [31a]: the inhibition at 1 µM against human HDAC2 [1] was 10%; on human HDAC1 [2] it was 4%; against human HDAC3 [3] (@1 µM), 21%. The inhibition at 10 µM was determined as 37% on human HDAC2 [1], 31% on human HDAC1 [2] and 65% at human HDAC3 [3] (@10 µM).

On to `COc1ccc(NC(=O)c2cnc(N3CCNCC3)cn2)c(N)c1` [27c], for which the HDAC1-pIC50 at human HDAC1 [4] is recorded as 4.7. For the same molecule, on human HDAC3 [5], the HDAC3-pIC50 was 4.85. Also, on human HDAC2 [6], the HDAC2-pIC50 is recorded as 4.85.

On to `Cn1cc(CCN2CCN(c3cnc(C(=O)Nc4cc(F)ccc4N)cn3)CC2)c2ccccc21` [23c], for which the HDAC1-pIC50 at human HDAC1 [4] was 6.48. The HDAC3-pIC50 at human HDAC3 [5] is listed as 6.23. In addition, the HDAC2-pIC50 on human HDAC2 [6] is 5.86.

`Nc1ccccc1NC(=O)c1cnc(N2CCN(Cc3ccccn3)CC2)cn1` [19d]: on human HDAC1 [4], the HDAC1-pIC50 is 6.28. Besides, the HDAC3-pIC50 on human HDAC3 [5] was 5.97. Further, the HDAC2-pIC50 on human HDAC2 [6] is on record as 5.84.

For the molecule `Nc1cc(F)ccc1NC(=O)c1cnc(N2CCNCC2)cn1` [23a], the HDAC1-pIC50 at human HDAC1 [4] is listed as 5.48. Moreover, the HDAC3-pIC50 on human HDAC3 [5] is recorded as 6.40. Besides, the HDAC2-pIC50 at human HDAC2 [6] is 5.66.

For `Nc1cc(F)c(F)cc1NC(=O)c1cnc(N2CCNCC2)cn1` [25b], the HDAC1-pIC50 at human HDAC1 [4] is reported as 5.37. Further, at human HDAC3 [5], the HDAC3-pIC50 is reported as 5.80. The HDAC2-pIC50 at human HDAC2 [6] is 5.38.

Regarding `Cn1cc(CN2CCN(c3ncc(C(=O)Nc4ccccc4N)cn3)CC2)c2ccccc21` [19j], the HDAC1-pIC50 at human HDAC1 [4] is given as 6.35. Moreover, the HDAC3-pIC50 at human HDAC3 [5] is 5.76. Moreover, the HDAC2-pIC50 at human HDAC2 [6] is on record as 6.03.

Turning to `Nc1ccc(-c2ccc(F)cc2)cc1NC(=O)c1cnc(N2CCN(CCc3c[nH]c4ccccc34)CC2)cn1` [21b], at human HDAC1 [4], the HDAC1-pIC50 was 6.15. The HDAC2-pIC50 at human HDAC2 [6] is 6.11.

Turning to `CN1CCN(c2cnc(C(=O)Nc3cc(-c4cccs4)ccc3N)cn2)CC1` [30b], the “Experimental HDAC2 pIC50” value at human HDAC2 [1] worked out at 6.10. The results for the IC50 at human HDAC2 [1] and on human HDAC1 [2] (read-out: HDAC1 IC50) were 0.79 ± 0.02 µM and 0.04 ± 0.006 µM, respectively. In addition, the “Experimental HDAC1 pIC50” value at human HDAC1 [2] is on record as 7.39. The HDAC3 % inhibition at human HDAC3 [3] (@1 µM) amounted to 6%; on human HDAC3 [3] (@10 µM) it was 35%.

As to `CC(=O)N1CCN(c2cnc(C(=O)Nc3ccccc3N)cn2)CC1` [30d], the “Experimental HDAC2 pIC50” value at human HDAC2 [1] was 4.62. Also, the IC50 against human HDAC2 [1] stood at 24 ± 2 µM; at human HDAC1 [2] (read-out: HDAC1 IC50) it was 1.9 ± 0.1 µM. Moreover, at human HDAC1 [2], the “Experimental HDAC1 pIC50” value was 5.72. For the same molecule, the HDAC3 % inhibition is 15% on human HDAC3 [3] (@1 µM) and 72% at human HDAC3 [3] (@10 µM).

As to `Cn1cc(CCN2CCN(c3cnc(C(=O)Nc4cc(-c5cccs5)ccc4N)cn3)CC2)c2ccccc21` [21a], at human HDAC1 [4], the HDAC1-pIC50 was 6.59. Also, on human HDAC2 [6], the HDAC2-pIC50 is 5.61.

Consider `Nc1ccccc1NC(=O)c1cnc(N2CCN(CCc3ccccc3)CC2)cn1` [19a], for which, on human HDAC1 [4], the HDAC1-pIC50 is recorded as 6.29. The HDAC3-pIC50 at human HDAC3 [5] was 5.95. Further, on human HDAC2 [6], the HDAC2-pIC50 is 6.10.

For `Cn1cc(CCN2CCN(c3cnc(C(=O)Nc4ccc(F)cc4N)cn3)CC2)c2ccccc21` [19m], the HDAC1-pIC50 at human HDAC1 [4] was 6.40. For the same molecule, the HDAC3-pIC50 at human HDAC3 [5] is listed as 6.40. In addition, the HDAC2-pIC50 on human HDAC2 [6] was 5.83.

As for `Cn1cc(CN2CCN(c3cnc(C(=O)Nc4cc(F)ccc4N)cn3)CC2)c2ccccc21` [23b], the HDAC1-pIC50 at human HDAC1 [4] was 6.57. Besides, the HDAC3-pIC50 on human HDAC3 [5] was 6.30. Further, the HDAC2-pIC50 on human HDAC2 [6] is reported as 6.30.

Turning to `Nc1ccccc1NC(=O)c1cnc(N2CCN(Cc3csc4ccccc34)CC2)cn1` [19e], the HDAC1-pIC50 on human HDAC1 [4] is 6.68. Also, on human HDAC3 [5], the HDAC3-pIC50 was 6.08. Also, the HDAC2-pIC50 on human HDAC2 [6] was 6.15.

For `Nc1cc(F)c(F)cc1NC(=O)c1cnc(N2CCN(CCc3c[nH]c4ccccc34)CC2)cn1` [19h], at human HDAC1 [4], the HDAC1-pIC50 was 6.09. In addition, the HDAC3-pIC50 on human HDAC3 [5] was 6.24. Further, on human HDAC2 [6], the HDAC2-pIC50 is on record as 6.13.

Consider `Cn1cc(CN2CCN(c3cnc(C(=O)Nc4ccccc4N)cn3)CC2)c2ccccc21` [19k], for which the HDAC1-pIC50 at human HDAC1 [4] is 6.85. The HDAC3-pIC50 on human HDAC3 [5] is listed as 6.23. The HDAC2-pIC50 on human HDAC2 [6] was 6.25.

Take `Nc1cc(F)ccc1NC(=O)c1ccc(C(=O)NCc2cccnc2)cc1` [31c]: the inhibition at 1 µM at human HDAC2 [1] was determined as 14%; against human HDAC1 [2], 6%; against human HDAC3 [3] (@1 µM), 25%. Also, the inhibition at 10 µM on human HDAC2 [1] was 51%; against human HDAC1 [2], 36%; against human HDAC3 [3] (@10 µM), 66%.

In the case of `CN1CCN(c2ncc(C(=O)Nc3cc(-c4cccs4)ccc3N)cn2)CC1` [30a], the IC50 is 0.61 ± 0.02 µM on human HDAC2 [1] and 0.324 µM at human HDAC1 [2] (read-out: Experimental HDAC1 pIC50 (converted)). Also, the inhibition at 1 µM against human HDAC3 [3] (@1 µM) is 8%. Testing at 10 µM on human HDAC3 [3] (@10 µM) gave an inhibition of 38%.

As for `Nc1ccccc1NC(=O)c1cnc(N2CCN(CCc3c[nH]c4ccccc34)CC2)cn1` [19g], the HDAC1-pIC50 at human HDAC1 [4] is 6.51. Besides, at human HDAC3 [5], the HDAC3-pIC50 is reported as 6.31. The HDAC2-pIC50 on human HDAC2 [6] is given as 6.02.

Turning to `Nc1cc(Cl)ccc1NC(=O)c1cnc(N2CCNCC2)cn1` [25a], on human HDAC3 [5], the HDAC3-pIC50 is listed as 5.06.

In the case of `CC(=O)N1CCN(c2cnc(C(=O)Nc3cc(-c4cccs4)ccc3N)cn2)CC1` [30c], the “Experimental HDAC2 pIC50” value on human HDAC2 [1] amounted to 5.96. Moreover, the values for the IC50 against human HDAC2 [1] and at human HDAC1 [2] (read-out: HDAC1 IC50) were 1.1 ± 0.1 µM and 0.019 ± 0.001 µM, respectively. Further, the “Experimental HDAC1 pIC50” value at human HDAC1 [2] came out at 7.72. Further, the figures for the HDAC3 % inhibition at human HDAC3 [3] (@1 µM) and at human HDAC3 [3] (@10 µM) were 4% and 30%, respectively.

With `CN1CCN(c2cnc(C(=O)Nc3cc(-c4ccsc4)ccc3N)cn2)CC1` [29a], the HDAC1-pIC50 at human HDAC1 [4] is 6.96. Besides, the HDAC3-pIC50 at human HDAC3 [5] is 5.36. Also, at human HDAC2 [6], the HDAC2-pIC50 is listed as 6.74.

For `Nc1ccc(-c2ccccc2F)cc1NC(=O)c1cnc(N2CCN(CCc3c[nH]c4ccccc34)CC2)cn1` [21c], the HDAC1-pIC50 at human HDAC1 [4] is listed as 6.12. For the same molecule, the HDAC3-pIC50 on human HDAC3 [5] is reported as 4.82. Besides, the HDAC2-pIC50 at human HDAC2 [6] was 6.12.

With `Cn1cc(CN2CCN(c3cnc(C(=O)Nc4cc(F)c(F)cc4N)cn3)CC2)c2ccccc21` [19l], at human HDAC1 [4], the HDAC1-pIC50 is 6.54. The HDAC3-pIC50 at human HDAC3 [5] is 6.09. Moreover, at human HDAC2 [6], the HDAC2-pIC50 is reported as 6.25.

As for `Nc1ccc(-c2cccs2)cc1NC(=O)c1cnc(N2CCNCC2)cn1` [29b], the HDAC1-pIC50 on human HDAC1 [4] is reported as 7.15. The HDAC3-pIC50 at human HDAC3 [5] is 5.21. Also, the HDAC2-pIC50 on human HDAC2 [6] is on record as 6.59.

`Nc1cc(Cl)ccc1NC(=O)c1cnc(N2CCN(CCc3c[nH]c4ccccc34)CC2)cn1` [19i]: on human HDAC1 [4], the HDAC1-pIC50 is listed as 5.52. The HDAC3-pIC50 at human HDAC3 [5] is 5.72. The HDAC2-pIC50 on human HDAC2 [6] is listed as 5.57.

Consider `Nc1cc(F)ccc1NC(=O)c1ccc(C(=O)NCc2ccncc2)cc1` [31b], for which the values for the inhibition at 1 µM on human HDAC2 [1], at human HDAC1 [2] and against human HDAC3 [3] (@1 µM) were 13%, 0% and 19%, respectively. In addition, the results for the inhibition at 10 µM on human HDAC2 [1], on human HDAC1 [2] and against human HDAC3 [3] (@10 µM) were 30%, 27% and 59%, respectively.

With `CN1CCN(c2cnc(C(=O)Nc3cc(-c4ccccc4F)ccc3N)cn2)CC1` [29d], the HDAC1-pIC50 at human HDAC1 [4] is listed as 6.74. For the same molecule, the HDAC3-pIC50 on human HDAC3 [5] is reported as 4.92. Also, the HDAC2-pIC50 on human HDAC2 [6] is recorded as 6.59.

Regarding `Nc1ccc(-c2ccc(F)cc2)cc1NC(=O)c1cnc(N2CCNCC2)cn1` [29c], the HDAC1-pIC50 at human HDAC1 [4] is 6.80. Besides, the HDAC3-pIC50 on human HDAC3 [5] is 5.17. In addition, at human HDAC2 [6], the HDAC2-pIC50 is 6.47.

What is called inhibition is the drop in the measured response relative to a control, in per cent.
